Data from patent publication US12133908B2, “Personal care composition comprising taurine, arginine, glycine” (Colgate-Palmolive Company, priority 2015, dated 2024).

Legend:
[1] = tested on: 3D EpiDerm skin models (SIT 200 skin irritation model); assay: in vitro skin irritation assay, IL-1α release by ELISA; assay type: cell-based
Description: To measure skin irritation, in vitro experiments are conducted using 3D EpiDerm skin models (SIT 200 skin irritation model, MatTek Corporation, Ashland, MA 01721). The irritation assay measures IL-la protein released by the cells to the media to evaluate the level of skin irritation and inflammation. In vitro skin samples are treated topically with 30 μl of test compounds (taurine (1% by weight) or taurine-L-arginine-glycine complex (1% by weight) of 2:1:1 (a mixture of 0.5% taurine, 0.25% L-arginine and 0.25% glycine, by weight) for 1 hour in tissue culture incubator. To induce irritation, cells are co-treated with 0.05% SDS and the test compounds. Following the incubation, skin samples are washed with PBS and placed in a culture medium and incubated for 24 hours. Cell culture media are collected for IL-la release assay. IL-la release is analyzed by ELISA assay kit (R&D Systems, Minneapolis, MN 55413). The greater IL-la release, the greater the irritation potential. […] Samples 1-6 are evaluated in the in vitro irritation assay as described above in Example 2.

HaCaT cells = assay: in vitro migration assay (scratch gap closure) for barrier repair; assay type: cell-based, human; conditions: 24 hours incubation, taurine 0.0005% alone or with L-arginine 0.0001% and glycine 0.0001% (Example 1)
Description: To determine barrier repair function of taurine combined with L-arginine and glycine, in vitro experiments are conducted using HaCaT cells. HaCaT cells are spontaneously transformed aneuploid immortal keratinocyte cell line from adult human skin and are grown until 100% confluent. After that, each well is scratched with 1000 μl tip to create the gap and washed with 1 ml of PBS twice to eliminate dead floating cells. Following that, cells are treated with 1 ml of culture media for control (untreated), Taurine (0.0005% by weight), and amino acid complex of taurine (0.0005% by weight) combined with L-arginine (0.0001% by weight) and glycine (0.0001% by weight). Then, initial measurements of gap distance are taken using microscope (OLYMPUS IX71). Next, the treated cells are incubated for 24 hours and measurements are taken again.
The migration assay measures cell migration in order to evaluate the barrier repair.

SMILES | IL-1α release (% of control) ([1]; 0.05% SDS alone (Example 2)) | IL-1α release (% of control) ([1]; 0.05% SDS alone (Example 4)) | increase of IL-1α release ([1]; 0.05% SDS alone vs untreated (Example 2)) | IL-1α release (% of control) ([1]; 1% test compound co-treated with 0.05% SDS (Example 4)) | IL-1α release (% of control) ([1]; 30 μl of 1% test compound co-treated with 0.05% SDS for 1 hour, then 24 hours in medium (Example 2)) | Cell migration in 24hr (% of control) (HaCaT cells)
CCCCCCCCCCCCOS(=O)(=O)[O-].[Na+] [SDS, sodium dodecyl sulfate] | 120 % of control | 140 % of control | 20% |  |  | 
NCCS(=O)(=O)O [taurine, 2-aminoethanesulfonic acid] |  |  |  | 114 % of control | 70 % of control | 66 % of control
